Assay results from patent US20230337672A1, “METHOD OF C[…] RUST FUNGUS HAVING RESISTANCE TO QoI FUNGICIDE” (SUMITOMO CHEMICAL COMPANY, LIMITED, priority 2020, published 2023).

Test system: soybean rust fungus (Phakopsora pachyrhizi) having an amino acid substitution of F129L in a mitochondrial cytochrome b protein
Test: Leaf disc test: preventive spray, then inoculation with soybean rust fungus spores, lesion area investigated
Assay type: in vivo
Conditions: Comparative Test Example 1 (Table A)
Experimental: A true leaf of a soybean (cultivar: Kurosengoku) was cut into a diameter of 1 cm to prepare each leaf disc. To each well of a 24 well microplate was dispensed 1 mL of an agar medium (agar concentration 1.2%), and then one of said leaf disc was placed on each well. To a mixture of Sorpol (registered trademark) 1200KX (0.5 µL), DMSO (4.5 µL), and xylene (5 µL) was added a DMSO solution (20 µL) comprising a test compound (10000 ppm), and the resulting mixture was mixed. The resulting mixture was diluted with ion exchange water to prepare a spray solution comprising a prescribed concentration of the test compound. Said spray solution was sprayed into each leaf disc at a ratio of 10 µL per leaf disc. After 1 day, an aqueous suspension of spores of soybean rust fungus (Phakopsora pachyrhizi) having an amino acid substitution of F129L in a mitochondrial cytochrome b protein (1.0 × 10^5/mL) was inoculated by spraying on each leaf disc. After the inoculation, the microplate was placed into an artificial climate chamber (Lighting: 6 hours, Lights-out: 18 hours, Temperature: 23° C., Humidity: 60%). After 1 day, the leaf discs were air-dried until water droplets on the surfaces of the leaf discs disappeared, and the microplate was placed into the artificial climate chamber again for 12 days. Then, lesion area of soybean rust was investigated. As a result, when the prescribed concentration was 50 ppm, each lesion area of leaf disc treated with any one of the Present compound 2, 6, 8, 25, 29, or 35 as the test compound was 30% or less relative to the lesion area of non-treated leaf disc.
Here, the term of “non-treated” means that a spray solution comprising a test compound was not sprayed into a leaf disc.
Each test is carried out according to the Test Example 1 by using any one of the Present compound S as the test compound with a prescribed concentration of 12.5 ppm. As a result, control effects on soybean rust can be confirmed in the leaf discs treated with test compounds.
Each test is carried out according to the Test Example 1 by using any one of the Present compound S as the test compound with a prescribed concentration of 3.1 ppm. As a result, control effects on soybean rust can be confirmed in the leaf discs treated with test compounds.
Each test was carried out according to the Test Example 1 by using the Present compound 2, 6, 8, 29 or 35, or azoxystrobin, dimoxystrobin, or metominostrobin as the test compound with a prescribed concentration of 50 ppm.

## CO/C=C(/C(=O)OC)c1ccccc1Oc1cc(Oc2ccccc2C#N)ncn1 [Azoxystrobin, azoxystrobin, reference compound]
  Lesion area (%) at the concentration of 50 ppm: 100%

## CNC(=O)/C(=N/OC)c1ccccc1COc1cc(C)ccc1C [Dimoxystrobin, dimoxystrobin, reference compound]
  Lesion area (%) at the concentration of 50 ppm: 100%

## CNC(=O)/C(=N/OC)c1ccccc1Oc1ccccc1 [Metominostrobin, metominostrobin, reference compound]
  Lesion area (%) at the concentration of 50 ppm: 100%

## CO/C=C(/C(=O)OC)c1cccc2oc(-c3ccccc3)nc12 [Present compound 2]
  Lesion area (%) at the concentration of 50 ppm: 10%

## CO/C=C(/C(=O)OC)c1cccc2sc(-c3ccccc3)nc12 [Present compound 6]
  Lesion area (%) at the concentration of 50 ppm: 30%

## CO/C=C(/C(=O)OC)c1cccc2ccc(-c3ccccc3)cc12 [Present compound 8]
  Lesion area (%) at the concentration of 50 ppm: 0%

## Cn1nc(Cl)n(-c2cccc3oc(Cc4ccccc4)nc23)c1=O [Present compound 29]
  Lesion area (%) at the concentration of 50 ppm: 10%

## Cn1nc(Cl)n(-c2cccc3oc(COc4ccccc4)nc23)c1=O [Present compound 35]
  Lesion area (%) at the concentration of 50 ppm: 0%
